{"source": "paper PMC5150537", "about": "(Nature Communications, 2016)", "biological_target": "T1, TmPPase (Thermotoga maritima, UniProt Q9S5X0)", "T1 construct": "gene hppA; N-terminally His6-tagged, plasmid pRS1024, expressed in Saccharomyces cerevisiae BJ1991, OGNPG-solubilised, homodimer", "T1 sequence (Q9S5X0 1-726 limits assumed)": "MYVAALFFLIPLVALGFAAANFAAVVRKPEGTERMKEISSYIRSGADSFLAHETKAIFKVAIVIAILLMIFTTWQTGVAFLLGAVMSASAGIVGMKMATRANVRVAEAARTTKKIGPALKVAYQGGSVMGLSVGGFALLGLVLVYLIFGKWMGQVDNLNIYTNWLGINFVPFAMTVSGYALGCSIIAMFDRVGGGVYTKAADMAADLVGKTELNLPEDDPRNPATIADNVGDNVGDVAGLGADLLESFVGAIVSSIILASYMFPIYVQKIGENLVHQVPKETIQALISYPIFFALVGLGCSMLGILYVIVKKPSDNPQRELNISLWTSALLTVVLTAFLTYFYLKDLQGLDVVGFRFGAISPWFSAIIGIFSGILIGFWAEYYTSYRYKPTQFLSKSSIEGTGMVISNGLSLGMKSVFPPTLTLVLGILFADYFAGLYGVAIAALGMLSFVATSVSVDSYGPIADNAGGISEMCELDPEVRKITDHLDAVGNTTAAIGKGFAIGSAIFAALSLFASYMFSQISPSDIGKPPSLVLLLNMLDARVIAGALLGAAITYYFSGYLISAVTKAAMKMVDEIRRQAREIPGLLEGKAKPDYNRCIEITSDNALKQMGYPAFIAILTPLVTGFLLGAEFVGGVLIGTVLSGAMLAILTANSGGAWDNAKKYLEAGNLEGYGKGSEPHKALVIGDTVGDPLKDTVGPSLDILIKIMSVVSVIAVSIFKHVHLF", "test": "X-ray crystallography, […] Å", "format": "binding", "details": "active site, as Mg5IDP complex; Na+ bound at ion gate; pH 8.5 well solution; non-hydrolysable substrate analogue"}
{"smiles": "O=P(O)(O)NP(=O)(O)O", "note": "[IDP, imidodiphosphate]", "values": [{"measurement": "X-ray crystallography, 3.5 Å", "value": "In TmPPase:IDP, an Mg5IDP-complex was fit into the positive Fo–Fc density in the hydrolytic centre"}]}
